For six molecules, EC50, inhibition and Emax results are on record in patent US10604512B2, “3-(1H-indol-2-yl)-1H-indazoles and therapeutic uses thereof” (Samumed, LLC, priority 2015, dated 2020).

One assay has as its system IL-6. As to the kind of experiment: Inhibition of IL-6 in LPS-stimulated THP-1 human monocyte cells (HTRF). Type of assay: cell-based. The following applies: for EC50: IL-6 inhibition, LPS-stimulated THP-1 cells, HTRF; for inhibition at 10 µM: THP-1, printed beside >10 μM EC50, top concentration 10 μM, meaning not given, read-out: percentage in parentheses after EC50 >10. The essentials:
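THP-1 cells serum-reduced (1% FBS, 24 h), then 5000 cells/well preincubated 2 h with compound (10-point 1:3 series from 10 μM, 0.1% DMSO) before 500 ng/mL LPS for 22 h at 37 °C. Secreted IL-6 quantified by HTRF 665/620 ratio; DMSO-normalised duplicates fitted to four-parameter EC50; above 10 μM, % inhibition at 10 μM given.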
(In TR-FRET formats the signal depends on donor and acceptor labels being close together.)

The test system of assay [1] is primary human mesenchymal stem cells (hMSCs). As to the kind of experiment: Induction of chondrogenesis in primary human mesenchymal stem cells (nodule imaging, Rhodamine B / Nile Red). Type of assay: cell-based. The essentials: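 hMSCs (passage 3–6) in incomplete chondrogenic induction medium dosed at 2700–10 nM (96-well) or 5000–2.2 nM (384-well), 0.03% DMSO, for 6 days at 37 °C. Fixed cells stained with Rhodamine B/Nile Red and nodule area imaged, normalized to DMSO wells (fold change). EC50 set against TGF-β3 (10 ng/mL); maximum activity and its dose also reported.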

As to `Fc1cccc(-c2cccc3[nH]c(-c4n[nH]c5ccc(-c6ccncc6)cc45)cc23)c1` [Compound 18, 3-(4-(3-Fluorophenyl)-1H-indol-2-yl)-5-(pyridin-4-yl)-1H-indazole], the EC50 with IL-6 was determined as 31 nM. `CC(C)(C)CC(=O)Nc1cncc(-c2ccc3[nH]nc(-c4cc5c(-c6ccsc6)cccc5[nH]4)c3c2)c1` [Compound 296, 3,3-Dimethyl-N-(5-(3-(4-(thiophen-3-yl)-1H-indol-2-yl)-1H-indazol-5-yl)pyridin-3-yl)butanamide]: in the assay with IL-6, the EC50 was greater than 10000 nM and the inhibition at 10 µM was 31.6%. In the same order, the values of `O=C(Nc1cncc(-c2ccc3[nH]nc(-c4cc5c(-c6ccsc6)cccc5[nH]4)c3c2)c1)C1CCCCC1` [Compound 303, N-(5-(3-(4-(Thiophen-3-yl)-1H-indol-2-yl)-1H-indazol-5-yl)pyridin-3-yl) cyclohexanecarboxamide] are greater than 10000 nM and 43.9%. Regarding `Nc1cncc(-c2ccc3[nH]nc(-c4cc5c(-c6ccoc6)cccc5[nH]4)c3c2)c1` [Compound 311, 5-(3-(4-(Furan-3-yl)-1H-indol-2-yl)-1H-indazol-5-yl)pyridin-3-amine], the EC50 in assay [1] (concentration required to induce 50% levels of chondrogenesis vs TGF-β3 positive control, read-out: Conc (nM) of 50% TGF-β3 activity) is 10 nM; in the assay with IL-6, 519 nM. The Emax in assay [1] (maximum chondrogenesis activity relative to TGF-β3 (10 ng/mL) positive control, read-out: Max. Activity as % TGF-β3 activity) stood at 197%. Regarding `O=C(Cc1ccccc1)Nc1cncc(-c2ccc3[nH]nc(-c4cc5c(-c6ccoc6)cccc5[nH]4)c3c2)c1` [Compound 318, N-(5-(3-(4-(Furan-3-yl)-1H-indol-2-yl)-1H-indazol-5-yl)pyridin-3-yl)-2-phenylacetamide], the EC50 with IL-6 is 304 nM. Same read-out and setting: the figure for `c1cc(-c2ccoc2)c2cc(-c3n[nH]c4ccc(-c5cncc(CNCC6CCCC6)c5)cc34)[nH]c2c1` [Compound 333, 1-Cyclopentyl-N-((5-(3-(4-(furan-3-yl)-1H-indol-2-yl)-1H-indazol-5-yl)pyridin-3-yl)methyl)methanamine] is 7580 nM.
